Results published in ChEMBL document CHEMBL5463723, “Data for DCP probe BIBO3304” (2023).

Assays:
[1] = molecular target: Beta-1 adrenergic receptor (Homo sapiens) (UniProt P08588); test: beta 1 Eurofins-Cerep binding assay; set-up: ligand concentration 0.3 nM; settings: Compound concentration 10.0 uM
[2] = molecular target: Muscarinic acetylcholine receptor M3 (Homo sapiens) (UniProt P20309); test: M3 Eurofins-Cerep binding assay; set-up: ligand concentration 0.2 nM; settings: Compound concentration 10.0 uM
Sequence of Muscarinic acetylcholine receptor M3 (Homo sapiens) (P20309 whole entry, looked up): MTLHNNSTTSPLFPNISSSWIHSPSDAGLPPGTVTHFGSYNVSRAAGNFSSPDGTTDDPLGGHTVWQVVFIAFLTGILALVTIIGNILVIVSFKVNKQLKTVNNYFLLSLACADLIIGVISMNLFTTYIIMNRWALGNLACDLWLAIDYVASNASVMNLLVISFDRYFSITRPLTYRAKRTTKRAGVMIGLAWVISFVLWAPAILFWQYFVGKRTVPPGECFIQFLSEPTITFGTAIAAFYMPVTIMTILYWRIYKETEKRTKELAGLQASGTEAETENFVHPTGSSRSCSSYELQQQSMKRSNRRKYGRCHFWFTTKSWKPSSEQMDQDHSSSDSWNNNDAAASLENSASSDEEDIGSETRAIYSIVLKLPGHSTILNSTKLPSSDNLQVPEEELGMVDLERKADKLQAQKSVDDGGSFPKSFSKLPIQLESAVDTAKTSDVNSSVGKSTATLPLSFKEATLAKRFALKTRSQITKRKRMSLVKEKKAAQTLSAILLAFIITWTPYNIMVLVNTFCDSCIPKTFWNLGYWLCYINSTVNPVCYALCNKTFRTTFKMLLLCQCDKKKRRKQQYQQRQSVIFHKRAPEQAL

Sequence of Beta-1 adrenergic receptor (Homo sapiens) (P08588 whole entry, looked up): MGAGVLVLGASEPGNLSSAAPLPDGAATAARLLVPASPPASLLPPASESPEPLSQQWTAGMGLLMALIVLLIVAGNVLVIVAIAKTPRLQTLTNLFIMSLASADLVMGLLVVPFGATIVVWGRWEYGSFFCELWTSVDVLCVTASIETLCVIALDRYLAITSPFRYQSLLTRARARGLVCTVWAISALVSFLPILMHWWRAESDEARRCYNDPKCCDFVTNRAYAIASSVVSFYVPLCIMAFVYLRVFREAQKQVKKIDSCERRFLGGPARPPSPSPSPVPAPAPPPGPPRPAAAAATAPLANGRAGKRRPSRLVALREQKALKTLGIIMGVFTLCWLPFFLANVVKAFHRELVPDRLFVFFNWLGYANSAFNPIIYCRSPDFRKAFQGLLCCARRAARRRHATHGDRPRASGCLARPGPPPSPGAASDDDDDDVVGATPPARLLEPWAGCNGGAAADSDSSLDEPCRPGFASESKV

- residual activity [1]: 106%
- residual activity [2]: 87%
Compound: N=C(N)NCCC[C@@H](NC(=O)C(c1ccccc1)c1ccccc1)C(=O)NCc1ccc(CNC(N)=O)cc1
